{"source": "patent US4057636A", "about": "“Antihypertensive pyridylguanidine compounds” (Leo Pharmaceutical Products Ltd. A/S, priority 1974, dated 1977)", "key": {"[1]": {"test_system": "conscious spontaneously hypertensive rats", "experiment": "Antihypertensive activity in conscious spontaneously hypertensive rats", "type": "in vivo, rat (spontaneously hypertensive Okamoto strain)", "protocol": "Male albino rats, spontaneously hypertensive Okamoto strain, fasting 16 hours before the experiments were used. The conscious animals were restrained in a plastic cage and a cuff was secured around the tail. The cuff was connected with an electronic blood pressure recorder. The systolic blood pressure and the heart rate were measured before and 2, 4, 6, and 24 hours after the administration of compounds. The compounds were suspended or dissolved in carboxymethylcellulose 0.5%. […] There are also included, for comparison, the results obtained under the same experimental conditions with some known antihypertensive drugs, and the approximate oral LD50 in mice are stated."}, "in vivo": {"experiment": "in vivo", "settings": "mouse"}, "[2]": {"test_system": "conscious normotensive dogs", "experiment": "Hypotensive activity in conscious normotensive dogs", "type": "in vivo, dog (mongrel)", "settings": "0.1 mg/kg oral", "protocol": "Hypotensive activity in conscious normotensive dogs\nMongrel dogs of both sexes, fasting 16 hours before the experiment were used. […] The compounds were orally administered in gelatine capsules."}}}
{"smiles": "CCC(CC)(CC)NC(=NC#N)Nc1cccnc1", "note": "[P 1068, N\"-cyano-N-(1,1-diethylpropyl)-N'-3-pyridylguanidine]", "values": [{"measurement": "BP", "setting": "[1]; 0.5 mg/kg, 2 hours", "value": 131, "unit": "mm Hg"}, {"measurement": "HR", "setting": "[1]; 0.5 mg/kg, 2 hours", "value": 473, "unit": "beats/minute"}, {"measurement": "BP", "setting": "[1]; 0.5 mg/kg, 4 hours", "value": 146, "unit": "mm Hg"}, {"measurement": "HR", "setting": "[1]; 0.5 mg/kg, 4 hours", "value": 437, "unit": "beats/minute"}, {"measurement": "BP", "setting": "[1]; 0.5 mg/kg, 24 hours", "value": 180, "unit": "mm Hg"}, {"measurement": "HR", "setting": "[1]; 0.5 mg/kg, 24 hours", "value": 383, "unit": "beats/minute"}, {"measurement": "LD50", "setting": "in vivo; po, p.o. (mice), approximate", "value": "> 1000", "unit": "mg/kg"}]}
{"smiles": "NNc1nncc2ccccc12", "note": "[Hydralazine, reference compound]", "values": [{"measurement": "BP", "setting": "[1]; 2.0 mg/kg, 2 hours", "value": 162, "unit": "mm Hg"}, {"measurement": "HR", "setting": "[1]; 2.0 mg/kg, 2 hours", "value": 425, "unit": "beats/minute"}, {"measurement": "BP", "setting": "[1]; 2.0 mg/kg, 4 hours", "value": 163, "unit": "mm Hg"}, {"measurement": "HR", "setting": "[1]; 2.0 mg/kg, 4 hours", "value": 413, "unit": "beats/minute"}, {"measurement": "BP", "setting": "[1]; 2.0 mg/kg, 24 hours", "value": 174, "unit": "mm Hg"}, {"measurement": "HR", "setting": "[1]; 2.0 mg/kg, 24 hours", "value": 379, "unit": "beats/minute"}, {"measurement": "BP", "setting": "[1]; 5.0 mg/kg, 2 hours", "value": 150, "unit": "mm Hg"}, {"measurement": "HR", "setting": "[1]; 5.0 mg/kg, 2 hours", "value": 405, "unit": "beats/minute"}, {"measurement": "BP", "setting": "[1]; 5.0 mg/kg, 4 hours", "value": 152, "unit": "mm Hg"}, {"measurement": "HR", "setting": "[1]; 5.0 mg/kg, 4 hours", "value": 410, "unit": "beats/minute"}, {"measurement": "BP", "setting": "[1]; 5.0 mg/kg, 24 hours", "value": 170, "unit": "mm Hg"}, {"measurement": "HR", "setting": "[1]; 5.0 mg/kg, 24 hours", "value": 380, "unit": "beats/minute"}, {"measurement": "LD50", "setting": "in vivo; mice, oral, printed with (114-130)", "value": 122, "unit": "mg/kg"}]}
{"smiles": "CCC(C)(CC)NC(=NC#N)Nc1cccnc1", "note": "[P 1066, N\"-cyano-N-(1-ethyl-1-methylpropyl)-N'-3-pyridylguanidine]", "values": [{"measurement": "BP", "setting": "[1]; 0.05 mg/kg, 2 hours", "value": 155, "unit": "mm Hg"}, {"measurement": "HR", "setting": "[1]; 0.05 mg/kg, 2 hours", "value": 462, "unit": "beats/minute"}, {"measurement": "BP", "setting": "[1]; 0.05 mg/kg, 4 hours", "value": 170, "unit": "mm Hg"}, {"measurement": "HR", "setting": "[1]; 0.05 mg/kg, 4 hours", "value": 417, "unit": "beats/minute"}, {"measurement": "BP", "setting": "[1]; 0.05 mg/kg, 24 hours", "value": 178, "unit": "mm Hg"}, {"measurement": "HR", "setting": "[1]; 0.05 mg/kg, 24 hours", "value": 413, "unit": "beats/minute"}, {"measurement": "BP", "setting": "[1]; 0.5 mg/kg, 2 hours", "value": 146, "unit": "mm Hg"}, {"measurement": "HR", "setting": "[1]; 0.5 mg/kg, 2 hours", "value": 437, "unit": "beats/minute"}, {"measurement": "BP", "setting": "[1]; 0.5 mg/kg, 4 hours", "value": 143, "unit": "mm Hg"}, {"measurement": "HR", "setting": "[1]; 0.5 mg/kg, 4 hours", "value": 413, "unit": "beats/minute"}, {"measurement": "BP", "setting": "[1]; 0.5 mg/kg, 24 hours", "value": 181, "unit": "mm Hg"}, {"measurement": "HR", "setting": "[1]; 0.5 mg/kg, 24 hours", "value": 413, "unit": "beats/minute"}, {"measurement": "BP", "setting": "[1]; 2.5 mg/kg, 2 hours", "value": 113, "unit": "mm Hg"}, {"measurement": "HR", "setting": "[1]; 2.5 mg/kg, 2 hours", "value": 386, "unit": "beats/minute"}, {"measurement": "BP", "setting": "[1]; 2.5 mg/kg, 4 hours", "value": 100, "unit": "mm Hg"}, {"measurement": "BP", "setting": "[1]; 2.5 mg/kg, 6 hours", "value": 114, "unit": "mm Hg"}, {"measurement": "HR", "setting": "[1]; 2.5 mg/kg, 6 hours", "value": 375, "unit": "beats/minute"}, {"measurement": "BP", "setting": "[1]; 2.5 mg/kg, 24 hours", "value": 152, "unit": "mm Hg"}, {"measurement": "HR", "setting": "[1]; 2.5 mg/kg, 24 hours", "value": 335, "unit": "beats/minute"}, {"measurement": "BP", "setting": "[1]; 10.0 mg/kg, 2 hours", "value": "< 100", "unit": "mm Hg"}, {"measurement": "BP", "setting": "[1]; 10.0 mg/kg, 4 hours", "value": "< 100", "unit": "mm Hg"}, {"measurement": "BP", "setting": "[1]; 10.0 mg/kg, 6 hours", "value": "< 100", "unit": "mm Hg"}, {"measurement": "BP", "setting": "[1]; 10.0 mg/kg, 24 hours", "value": 126, "unit": "mm Hg"}, {"measurement": "HR", "setting": "[1]; 10.0 mg/kg, 24 hours", "value": 336, "unit": "beats/minute"}, {"measurement": "LD50", "setting": "in vivo; po, p.o. (mice), approximate", "value": "> 1000", "unit": "mg/kg"}]}
{"smiles": "N=c1nc(N2CCCCC2)cc(N)n1O", "note": "[Minoxidil, 6-Amino-1,2-dihydro-1-hydroxy-2-imino-4-piperid-1-ylpyrimidine, reference compound]", "values": [{"measurement": "BP", "setting": "[1]; 0.5 mg/kg, 2 hours", "value": 161, "unit": "mm Hg"}, {"measurement": "HR", "setting": "[1]; 0.5 mg/kg, 2 hours", "value": 409, "unit": "beats/minute"}, {"measurement": "BP", "setting": "[1]; 0.5 mg/kg, 4 hours", "value": 153, "unit": "mm Hg"}, {"measurement": "HR", "setting": "[1]; 0.5 mg/kg, 4 hours", "value": 411, "unit": "beats/minute"}, {"measurement": "BP", "setting": "[1]; 0.5 mg/kg, 24 hours", "value": 167, "unit": "mm Hg"}, {"measurement": "HR", "setting": "[1]; 0.5 mg/kg, 24 hours", "value": 400, "unit": "beats/minute"}, {"measurement": "BP", "setting": "[1]; 1.0 mg/kg, 2 hours", "value": 158, "unit": "mm Hg"}, {"measurement": "HR", "setting": "[1]; 1.0 mg/kg, 2 hours", "value": 431, "unit": "beats/minute"}, {"measurement": "BP", "setting": "[1]; 1.0 mg/kg, 4 hours", "value": 146, "unit": "mm Hg"}, {"measurement": "HR", "setting": "[1]; 1.0 mg/kg, 4 hours", "value": 424, "unit": "beats/minute"}, {"measurement": "BP", "setting": "[1]; 1.0 mg/kg, 24 hours", "value": 169, "unit": "mm Hg"}, {"measurement": "HR", "setting": "[1]; 1.0 mg/kg, 24 hours", "value": 407, "unit": "beats/minute"}]}
{"smiles": "CCCC(C)(C)NC(=NC#N)Nc1cccnc1", "note": "[P 1067, N\"-cyano-N-(1,1-dimethylbutyl)-N'-3-pyridylcuanidine]", "values": [{"measurement": "BP", "setting": "[1]; 0.5 mg/kg, 2 hours", "value": 158, "unit": "mm Hg"}, {"measurement": "HR", "setting": "[1]; 0.5 mg/kg, 2 hours", "value": 440, "unit": "beats/minute"}, {"measurement": "BP", "setting": "[1]; 0.5 mg/kg, 4 hours", "value": 168, "unit": "mm Hg"}, {"measurement": "HR", "setting": "[1]; 0.5 mg/kg, 4 hours", "value": 413, "unit": "beats/minute"}, {"measurement": "BP", "setting": "[1]; 0.5 mg/kg, 24 hours", "value": 176, "unit": "mm Hg"}, {"measurement": "HR", "setting": "[1]; 0.5 mg/kg, 24 hours", "value": 408, "unit": "beats/minute"}, {"measurement": "LD50", "setting": "in vivo; po", "value": "> 1000", "unit": "mg/kg"}]}
{"smiles": "CCC(C)(C)NC(=NC#N)Nc1cccnc1", "note": "[P 1075, N\"-cyano-N-tert-pentyl-N'-3-pyridylguanidine]", "values": [{"measurement": "BP", "setting": "[1]; 0.05 mg/kg, 2 hours", "value": 105, "unit": "mm Hg"}, {"measurement": "HR", "setting": "[1]; 0.05 mg/kg, 2 hours", "value": 450, "unit": "beats/minute"}, {"measurement": "BP", "setting": "[1]; 0.05 mg/kg, 4 hours", "value": 102, "unit": "mm Hg"}, {"measurement": "HR", "setting": "[1]; 0.05 mg/kg, 4 hours", "value": 432, "unit": "beats/minute"}, {"measurement": "BP", "setting": "[1]; 0.05 mg/kg, 24 hours", "value": 164, "unit": "mm Hg"}, {"measurement": "HR", "setting": "[1]; 0.05 mg/kg, 24 hours", "value": 348, "unit": "beats/minute"}, {"measurement": "LD50", "setting": "in vivo; po, p.o. (mice), approximate", "value": 1000, "unit": "mg/kg"}, {"measurement": "BP", "setting": "[2]; Dog I, 1 hour", "value": 72, "unit": "mm Hg"}, {"measurement": "HR", "setting": "[2]; Dog I, 1 hour", "value": 160, "unit": "beats/minute"}, {"measurement": "BP", "setting": "[2]; Dog I, 2 hours", "value": 75, "unit": "mm Hg"}, {"measurement": "HR", "setting": "[2]; Dog I, 2 hours", "value": 180, "unit": "beats/minute"}, {"measurement": "BP", "setting": "[2]; Dog I, 3 hours", "value": 85, "unit": "mm Hg"}, {"measurement": "HR", "setting": "[2]; Dog I, 3 hours", "value": 142, "unit": "beats/minute"}, {"measurement": "BP", "setting": "[2]; Dog I, 4 hours", "value": 95, "unit": "mm Hg"}, {"measurement": "HR", "setting": "[2]; Dog I, 4 hours", "value": 135, "unit": "beats/minute"}, {"measurement": "BP", "setting": "[2]; Dog II, 1 hour", "value": 82, "unit": "mm Hg"}, {"measurement": "HR", "setting": "[2]; Dog II, 1 hour", "value": 175, "unit": "beats/minute"}, {"measurement": "BP", "setting": "[2]; Dog II, 2 hours", "value": 74, "unit": "mm Hg"}, {"measurement": "HR", "setting": "[2]; Dog II, 2 hours", "value": 185, "unit": "beats/minute"}, {"measurement": "BP", "setting": "[2]; Dog II, 3 hours", "value": 92, "unit": "mm Hg"}, {"measurement": "HR", "setting": "[2]; Dog II, 3 hours", "value": 163, "unit": "beats/minute"}, {"measurement": "BP", "setting": "[2]; Dog II, 4 hours", "value": 115, "unit": "mm Hg"}, {"measurement": "HR", "setting": "[2]; Dog II, 4 hours", "value": 140, "unit": "beats/minute"}, {"measurement": "BP", "setting": "[2]; Dog III, 1 hour", "value": 95, "unit": "mm Hg"}, {"measurement": "HR", "setting": "[2]; Dog III, 1 hour", "value": 185, "unit": "beats/minute"}, {"measurement": "BP", "setting": "[2]; Dog III, 2 hours", "value": 90, "unit": "mm Hg"}, {"measurement": "HR", "setting": "[2]; Dog III, 2 hours", "value": 175, "unit": "beats/minute"}, {"measurement": "BP", "setting": "[2]; Dog III, 3 hours", "value": 104, "unit": "mm Hg"}, {"measurement": "HR", "setting": "[2]; Dog III, 3 hours", "value": 149, "unit": "beats/minute"}, {"measurement": "BP", "setting": "[2]; Dog III, 4 hours", "value": 110, "unit": "mm Hg"}, {"measurement": "HR", "setting": "[2]; Dog III, 4 hours", "value": 140, "unit": "beats/minute"}]}
